Measurements taken from patent US6274627A, “Conjugates of dithiocarbamate disulfides with pharmacologically active agents and uses therefor” (Medinox, Inc., priority 1999, dated 2001).
Entries after “also recorded” stand apart in the source; their conditions may differ.

How the values were obtained:
esterase = experiment: Enzymatic hydrolysis of PDD-NSAIDs by esterase; format: in vitro ADME; details: for time within which the compound was decomposed into two compounds: esterase, PBS buffer, as described for compound 12
Experimental: The resulting solution was put in a water bath (37° C.) for 30 min and then at room temperature overnight.

cancer patients = cancer patients receiving adriamycin chemotherapy; cited from earlier work
[1] = iron-ICRF-187 complex, Fenton reaction; cited from earlier work
[2] = system: male Sprague-Dawley rats (stomach, gastric lesions); experiment: Gastric erosions in the rat gastropathy model; format: in vivo; details: oral; for length of the lesions (most of the lesions): corpus of the stomach; for number of gastric lesions, dose dependence: naproxen 15 and 30 mg/kg, PDD-Naproxen 27 & 54 mg/kg (equimolar)
[3] = system: Lewis male rats (M. tuberculosis adjuvant-induced arthritis); experiment: Chronic inflammation: rat adjuvant arthritis model; format: in vivo; details: for reduction of swelling compared to control by day 15: oral high doses: naproxen 10 mg/kg, days 5-8 and 11-14
Experimental: Thus, paw volume increases (measured with a Plethysmometer) are reported as a function of time, and were measured in the injected feet of Lewis male rats in which arthritis was induced by intradermel injection of adjuvant into the footpad.
NSAIDs are useful in both chronic and acute inflammatory conditions. Efficacy in chronic inflammation can be estimated using the rat adjuvant arthritis model (Blackham et al. supra). In this model Lewis male rats (175-250 g) were injected intradermally in the footpad with M. tuberculosis powder suspended in mineral oil at 5 mg/ml. Progressive swelling of the uninjected paw and ankle joint between days 11 and 15 was measured by plethysmometry.

[4] = system: male Sprague-Dawley rats (carrageenan-injected paw); experiment: Acute inflammation: rat carrageenan-induced hindlimb edema model; format: in vivo
Experimental: Efficacy of NSAIDs in acute inflammation can be estimated by using intraplantar injection of carrageenan in the rat. Male Sprague-Dawley rats (200-250 g) were injected intradermally in the footpad with 50 μl of a 1% carrageenan solution in PBS. Swelling of the injected paw was measured at 2, 3, 5 & 7 hours using a plethysmometer.

[5] = Plasma pharmacokinetics of naproxen following oral administration of PDD-Naproxen or naproxen in rats
[6] = system: gastrointestinal toxicity; details: in vivo; cited from earlier work
COX-2 = details: cited from earlier work
nuclear factor kappa B = details: intact cells; cited from earlier work
[7] = PDD-Naproxen (NOX-319) 18 mg/kg

CC(C)Cc1ccc(C(C)C(=O)OCCCOC(=O)[C@@H]2CCCN2C(=S)SSC(=S)N2CCC[C@H]2C(=O)OCCCOC(=O)C(C)c2ccc(CC(C)C)cc2)cc1 (stereo partly shown) [Compound 16]
time within which the compound was decomposed into two compounds (esterase): ≤ 5 h

CC(C(=O)OCCCOC(=O)[C@@H]1CCCN1C(=S)SSC(=S)N1CCC[C@H]1C(=O)OCCCOC(=O)C(C)c1cccc(C(=O)c2ccccc2)c1)c1cccc(C(=O)c2ccccc2)c1 (stereo partly shown) [Compound 20]
time within which the compound was decomposed into two compounds (esterase): ≤ 5 h

COc1ccc2c(c1)c(CC(=O)OCCCOC(=O)[C@@H]1CCCN1C(=S)SSC(=S)N1CCC[C@H]1C(=O)OCCCOC(=O)Cc1c(C)n(C(=O)c3ccc(Cl)cc3)c3ccc(OC)cc13)c(C)n2C(=O)c1ccc(Cl)cc1 [Compound 24]
time within which the compound was decomposed into two compounds (esterase): ≤ 5 h

C[C@@H](CN1CC(=O)NC(=O)C1)N1CC(=O)NC(=O)C1 [ICRF-187]
removal of iron from the anthracycline-iron complex, preventing cardiac toxicity (cancer patients): effective for the removal of iron from the anthracycline-iron complex, therefore preventing the cardiac toxicity | promotion of hydroxyl radical generation [1]: very effective at promoting hydroxyl radical generation

COc1ccc2cc([C@H](C)C(=O)O)ccc2c1 [Naproxen, (S)-(+)-methoxy-α-methyl-2-naphthaleneacetic acid, reference compound]
length of the lesions (most of the lesions) [2]: less than 2 mm | number of gastric lesions, dose dependence ([2]; 3 h): dose-related number of lesions | reduction of swelling compared to control by day 15 [3, 7]: approximately 70%

COc1ccc2cc(C(C)C(=O)OCCCOC(=O)C3CCCN3C(=S)SSC(=S)N3CCCC3C(=O)OCCCOC(=O)C(C)c3ccc4cc(OC)ccc4c3)ccc2c1 (stereo not shown) [PDD-Naproxen]
decomposition by esterase (esterase; 33.3 units esterase in PBS buffer, 37° C. for 30 min, then room temperature overnight): decomposed into two compounds | gastric safety / tendency to cause gastric erosions, overall ([2]; relative to naproxen): has the ability to reduce the number of erosions in the corpus of the stomach; also recorded: tendency to cause gastric erosions is reduced; also recorded: improved gastric safety | number of gastric erosions, low dose ([2]; PDD-Naproxen 27 mg/kg vs naproxen 15 mg/kg, 6 animals in each group): fewer erosions than the low dose of naproxen, but statistical significance was not achieved | number of gastric lesions, high dose ([2]; PDD-Naproxen 54 mg/kg vs naproxen 30 mg/kg, 3 h): significantly fewer lesions than the high dose naproxen group (ANOVA; p<0.005) | length of the lesions (most of the lesions) [2]: less than 2 mm | number of gastric lesions, dose dependence ([2]; 3 h): dose-related number of lesions | reduction in paw swelling ([4]; oral 1 h before carrageenan, naproxen 10 mg/kg or PDD-Naproxen 18 mg/kg (equimolar)): reduced inflammation significantly at 2 and 3 hours, but started to wear off by 5 hours | acute antiinflammatory activity, overall ([4]; oral, carrageenan model): orally active in rats, but slightly less effective vs acute inflammation than the parent drug; also recorded: antiinflammatory activity similar to naproxen; also recorded: alleviation of acute inflammation | reduction of swelling compared to control by day 15 [3, 7]: approximately 70% | chronic antiinflammatory effect, overall ([3]; oral, equimolar doses, vs naproxen): antiinflammatory activity similar to naproxen; also recorded: antiinflammatory effects equal to those of naproxen; also recorded: effectiveness of PDD-Naproxen in the treatment of adjuvant-induced arthritis | effect on swelling by day 15, lower doses ([3]; oral, naproxen 1 mg/kg, PDD-Naproxen (NOX-319) 1.8 mg/kg): slight effect by day 15 | reduction of swelling on days 13 through 15, high doses ([3]; oral, naproxen 10 mg/kg, PDD-Naproxen (NOX-319) 18 mg/kg): comparable reduction of swelling | naproxen pharmacokinetic profile, overall ([5]; oral or IV, vs naproxen itself): better naproxen pharmacokinetic profiles than naproxen itself | AUCinf comparison, oral ([5]; oral, PDD-Naproxen vs naproxen): no significant difference

COc1ccc2cc(CCC(C)=O)ccc2c1 [nabumetone]
gastrointestinal toxicity relative to other NSAIDs on the market [6]: reduced gastrointestinal toxicity | selectivity for COX-2 (COX-2): marked selectivity for COX-2

S=C(S)N1CCCC1 [pyrrolidine dithiocarbamate]
inhibition of nuclear factor kappa B (nuclear factor kappa B): potent inhibitors of nuclear factor kappa B
